Experimental data as given in ChEMBL document CHEMBL5154679, “A target and efficient synthetic strategy for structural and bioactivity optimization of a fungal natural product” (Eur J Med Chem, 2022).
Values after ≈ are worked out from the molar mass of the structure shown. Active and inactive are the calls of the source. The calls are words filed in the database; no cut-off is given here.

Assays:
[1] = test system: MCF7; assay: Inhibition of colony formation in human MCF7 cells at 2 ug/ml measured after 48 hrs by crystal violet staining based analysis; format: functional, cell-based; settings: dose 2.0 µg/ml
[2] = test system: HeLa; assay: Antiproliferative activity against human HeLa cells assessed as reduction in cell viability incubated for 48 hrs by SRB assay; format: functional, cell-based
[3] = test system: HeLa; assay: Inhibition of colony formation in human HeLa cells at 2 ug/ml measured after 48 hrs by crystal violet staining based analysis; format: functional, cell-based; settings: dose 2.0 µg/ml
[4] = Cytotoxicity against human L02 cells assessed as reduction in cell viability incubated for 48 hrs by SRB assay; format: toxicity, cell-based
[5] = Cytotoxicity against human HUVEC cells assessed as reduction in cell viability incubated for 48 hrs by SRB assay; format: toxicity, cell-based
[6] = test system: MCF7; assay: Antiproliferative activity against human MCF7 cells assessed as reduction in cell viability incubated for 48 hrs by SRB assay; format: functional, cell-based; settings: MCF7, 48 h
[7] = test system: HCT-116; assay: Antiproliferative activity against human HCT-116 cells assessed as reduction in cell viability incubated for 48 hrs by SRB assay; format: functional, cell-based; settings: HCT-116, 48 h
[8] = test system: MDA-MB-231; assay: Antiproliferative activity against human MDA-MB-231 cells assessed as reduction in cell viability incubated for 48 hrs by SRB assay; format: functional, cell-based; settings: MDA-MB-231, 48 h
[9] = test system: MGC-803; assay: Antiproliferative activity against human MGC-803 cells assessed as reduction in cell viability incubated for 48 hrs by SRB assay; format: functional, cell-based; settings: MGC-803, 48 h
[10] = test system: HepG2; assay: Antiproliferative activity against human HepG2 cells assessed as reduction in cell viability incubated for 48 hrs by SRB assay; format: functional, cell-based; settings: HepG2, 48 h
[11] = test system: HCT-116; assay: Inhibition of colony formation in human HCT-116 cells at 2 ug/ml measured after 48 hrs by crystal violet staining based analysis; format: functional, cell-based; settings: dose 2.0 µg/ml
[12] = Half life in Sprague-Dawley rat at 1 mg/kg, iv by LC-MS/MS analysis; format: ADME, organism-based; settings: in vivo
[13] = MRT (0 to t) in Sprague-Dawley rat at 1 mg/kg, iv by LC-MS/MS analysis; format: ADME, organism-based; settings: in vivo
[14] = Clearance in Sprague-Dawley rat at 1 mg/kg, iv by LC-MS/MS analysis; format: ADME, organism-based; settings: in vivo
[15] = Volume of distribution in Sprague-Dawley rat at 1 mg/kg, iv by LC-MS/MS analysis; format: ADME, organism-based; settings: in vivo
[16] = AUC (0 to infinity) in Sprague-Dawley rat at 1 mg/kg, iv by LC-MS/MS analysis; format: ADME, organism-based; set-up: time infinity, dose 1 mg/kg, route iv; settings: in vivo
[17] = test system: MDA-MB-231; assay: Anti-adhesion activity against human MDA-MB-231 cells assessed as inhibition of cell adhesion measured after 6 hrs by microscopic analysis; format: functional, cell-based
[18] = MRT (0 to infinity) in Sprague-Dawley rat at 1 mg/kg, iv by LC-MS/MS analysis; format: ADME, organism-based; settings: in vivo
[19] = Cmax in Sprague-Dawley rat at 1 mg/kg, iv by LC-MS/MS analysis; format: ADME, organism-based; set-up: dose 1 mg/kg, route iv; settings: in vivo
[20] = AUC (0 to t) in Sprague-Dawley rat at 1 mg/kg, iv by LC-MS/MS analysis; format: ADME, organism-based; set-up: dose 1 mg/kg, route iv; settings: in vivo
[21] = test system: MDA-MB-231; assay: Anti-metastasis activity against human MDA-MB-231 cells assessed as inhibition of cell migration at 2 ug/ml measured after 24 hrs by scratch wound healing assay; format: functional, cell-based; settings: dose 2.0 µg/ml
[22] = Tmax in Sprague-Dawley rat at 1 mg/kg, iv by LC-MS/MS analysis; format: ADME, organism-based; settings: in vivo
[23] = test system: MDA-MB-231; assay: Anti-invasive activity against human MDA-MB-231 cells assessed as inhibition of cell invasion at 2 ug/ml measured after 24 hrs by transwell assay; format: functional, cell-based; settings: dose 2.0 µg/ml

In the case of `COc1cc(=O)oc(/C=C/C=C/C=C/[C@@]2(C)C[C@]3(C)O[C@H](C)[C@](C)(O2)[C@H]3C(=O)c2cccs2)c1C`, the inhibition [1] is reported as “Active”, the IC50 [2] is reported as 1.01 µg/mL (≈ 2.03 µM) and the inhibition [3] is reported as “Active”. For the same molecule, the IC50 at 48 h [4] was over 50 µg/mL, the IC50 at 48 h [5] was over 50 µg/mL and the IC50 [6] was 0.62 µg/mL (≈ 1.25 µM). For the same molecule, the IC50 [7] was 0.63 µg/mL (≈ 1.27 µM), the IC50 [8] was 2.87 µg/mL (≈ 5.78 µM) and the IC50 [9] was 3.97 µg/mL (≈ 7.99 µM). The IC50 [10] was 2.42 µg/mL (≈ 4.87 µM) and the inhibition [11] was “Active”.

`COc1cccc2c1C(=O)c1c(O)c3c(c(O)c1C2=O)C[C@@](O)(C(=O)CO)C[C@@H]3O[C@H]1C[C@H](N)[C@H](O)[C@H](C)O1` [DOXORUBICIN] showed an IC50 [2] of 0.051 µg/mL (≈ 0.0938 µM), an IC50 at 48 h [4] of over 50 µg/mL and an IC50 at 48 h [5] of 23.3 µg/mL (≈ 42.9 µM). For the same molecule, the IC50 [7] was 3.36 µg/mL (≈ 6.18 µM), the IC50 [8] was 0.37 µg/mL (≈ 0.681 µM) and the IC50 [9] was 0.51 µg/mL (≈ 0.938 µM). For the same molecule, the IC50 [10] was 0.64 µg/mL (≈ 1.18 µM).

Molecule `COc1cc(=O)oc(/C=C/C=C/C=C/[C@@]2(C)C[C@]3(C)O[C@H](C)[C@](C)(O2)[C@H]3C(=O)c2ccncc2)c1C` has an IC50 [7] of 13.5 µg/mL (≈ 27.5 µM).

`CCC[C@H]1[C@@]2(C)O[C@H](C)[C@]1(C)O[C@@](C)(/C=C/C=C/C=C/c1oc(=O)cc(OC)c1C)[C@@H]2CCC` gave an IC50 [7] of 4.29 µg/mL (≈ 9.12 µM).

`CCC[C@@H]1[C@@]2(C)O[C@@](C)(/C=C/C=C/C=C/c3oc(=O)cc(OC)c3C)C[C@]1(C)O[C@@H]2C` showed an IC50 [7] of 5.9 µg/mL (≈ 13.8 µM).

For `COc1cc(=O)oc(/C=C/C=C/C=C/[C@]2(C)O[C@]3(C)[C@@H](C(C)=O)[C@@](C)(O[C@@H]3C)[C@H]2C(C)=O)c1C`, the IC50 [7] was 5.77 µg/mL (≈ 12.3 µM).

`COc1cc(=O)oc(/C=C/C=C/C=C/C(C)=C/C2(C)O[C@H](C)[C@](C)(O)[C@H]2O)c1C` (some centres not stated) showed an IC50 [7] of 19.8 µg/mL (≈ 49.1 µM).

For `COc1cc(=O)oc(/C=C/C=C/C=C/[C@@]2(C)C[C@]3(C)O[C@H](C)[C@](C)(O2)[C@H]3C(=O)c2ccccc2)c1C`, the IC50 [2] was 0.85 µg/mL (≈ 1.73 µM), the IC50 at 48 h [4] was 30.1 µg/mL (≈ 61.4 µM) and the IC50 at 48 h [5] was over 50 µg/mL. The IC50 [6] was 0.92 µg/mL (≈ 1.88 µM), the IC50 [7] was 1.52 µg/mL (≈ 3.1 µM) and the IC50 [8] was 4.38 µg/mL (≈ 8.93 µM). It also gave an IC50 [9] of 3.97 µg/mL (≈ 8.09 µM) and an IC50 [10] of 3.96 µg/mL (≈ 8.07 µM).

Work on `COc1cc(=O)oc(/C=C/C=C/C=C/[C@@]2(C)C[C@]3(C)O[C@H](C)[C@](C)(O2)[C@H]3C(=O)c2ccccn2)c1C` yielded an IC50 [7] of 11.4 µg/mL (≈ 23.3 µM).

In the case of `COc1cc(=O)oc(/C=C/C=C/C=C/[C@@]2(C)C[C@]3(C)O[C@H](C)[C@](C)(O2)[C@H]3C(C)=O)c1C`, the IC50 [7] is reported as 7.04 µg/mL (≈ 16.4 µM).

For `COc1cc(=O)oc(/C=C/C=C/C=C/[C@@]2(C)C[C@]3(C)O[C@H](C)[C@](C)(O2)[C@H]3C(=O)CCc2ccc(Cl)cc2)c1C`, the IC50 [7] was 4.89 µg/mL (≈ 8.84 µM).

Molecule `COc1cc(=O)oc(/C=C/C=C/C=C/[C@@]2(C)C[C@]3(C)O[C@H](C)[C@](C)(O2)[C@H]3C(=O)c2cccnc2)c1C` has an IC50 [7] of 12.5 µg/mL (≈ 25.4 µM).

Molecule `COc1cc(=O)oc(/C=C/C=C/C=C/[C@@]2(C)C[C@]3(C)O[C@H](C)[C@](C)(O2)[C@H]3C(=O)Cc2ccc(Cl)cc2)c1C` has an IC50 [7] of 6.44 µg/mL (≈ 11.9 µM).

With `COc1cc(=O)oc(/C=C/C=C/C=C/[C@]2(C)O[C@]3(C)[C@@H](C(=O)c4ccccc4)[C@@](C)(O[C@@H]3C)[C@H]2C(=O)c2ccccc2)c1C` the IC50 [7] was 28.8 µg/mL (≈ 48.4 µM).

With `COc1cc(=O)oc(/C=C/C=C/C=C/[C@@]2(C)C[C@]3(C)O[C@H](C)[C@](C)(O2)[C@H]3C(=O)c2ccc(Cl)cc2)c1C` the inhibition [1] was “Active”, the IC50 [2] was 1.35 µg/mL (≈ 2.57 µM) and the inhibition [3] was “Active”. It also gave an IC50 at 48 h [4] of over 50 µg/mL, a half-life [12] of 503 min and an IC50 at 48 h [5] of over 50 µg/mL. The IC50 [6] was 0.68 µg/mL (≈ 1.3 µM), the IC50 [7] was 1.23 µg/mL (≈ 2.34 µM) and the MRT last [13] was 313 min. For the same molecule, the IC50 [8] was 4.04 µg/mL (≈ 7.69 µM), the clearance [14] was 2 mL/min/kg and the Vd [15] was 1.42 L/kg. The AUC(0-inf) [16] was 8640 ng·h/mL, the IC50 [9] was 1.54 µg/mL (≈ 2.93 µM) and the IC50 [10] was 1.96 µg/mL (≈ 3.73 µM). The Activity [17] was “Active”, the MRT inf [18] was 521 min and the Cmax [19] was 3040 ng/mL. The inhibition [11] was “Active”, the AUC(0-t) [20] was 7710 ng·h/mL and the Activity [21] was “Active”. The Tmax [22] was 7.2 min and the Activity [23] was “Active”.

For `COc1cc(=O)oc(/C=C/C=C/C=C/[C@@]2(C)C[C@]3(C)O[C@H](C)[C@](C)(O2)[C@H]3C(=O)c2ccc(C#N)cc2)c1C`, the IC50 [7] was 11.3 µg/mL (≈ 22 µM).

With `COc1ccc(C(=O)[C@@H]2[C@@]3(C)O[C@@](C)(/C=C/C=C/C=C/c4oc(=O)cc(OC)c4C)C[C@]2(C)O[C@@H]3C)cc1` the IC50 [7] was 4.97 µg/mL (≈ 9.55 µM).

In the case of `COc1cc(=O)oc(/C=C/C=C/C=C/[C@]2(C)O[C@]3(C)[C@@H](O)[C@@](C)(O[C@@H]3C)[C@H]2O)c1C`, the inhibition [1] is reported as “Active”, the inhibition [3] is reported as “Active” and the half-life [12] is reported as 21 min. It also gave an IC50 [7] of 14.9 µg/mL (≈ 35.6 µM), an MRT last [13] of 19.8 min and a clearance [14] of 83.2 mL/min/kg. The Vd [15] was 2.5 L/kg, the AUC(0-inf) [16] was 206 ng·h/mL and the MRT inf [18] was 21 min. The Cmax [19] was 417 ng/mL, the inhibition [11] was “Active” and the AUC(0-t) [20] was 203 ng·h/mL. The Activity [21] was “Active”, the Tmax [22] was 6 min and the Activity [23] was “Active”.

`COc1cc(=O)oc(/C=C/C=C/C=C/[C@]2(C)O[C@]3(C)[C@@H](C(=O)c4cccnc4)[C@@](C)(O[C@@H]3C)[C@H]2C(=O)c2cccnc2)c1C` showed an IC50 [7] of 12.5 µg/mL (≈ 21 µM).

`COc1cc(=O)oc(/C=C/C=C/C=C/[C@@]2(C)C[C@]3(C)O[C@H](C)[C@](C)(O2)[C@H]3C(=O)C(C)(C)C)c1C` gave an IC50 [7] of 4.98 µg/mL (≈ 10.6 µM).

With `COc1cc(=O)oc(/C=C/C=C/C=C/[C@@]2(C)C[C@]3(C)O[C@H](C)[C@](C)(O2)[C@H]3C(=O)c2ccco2)c1C` the IC50 [2] was 1.48 µg/mL (≈ 3.08 µM), the IC50 at 48 h [4] was over 50 µg/mL and the IC50 at 48 h [5] was over 50 µg/mL. It also gave an IC50 [6] of 0.74 µg/mL (≈ 1.54 µM), an IC50 [7] of 1.4 µg/mL (≈ 2.91 µM) and an IC50 [8] of 4.46 µg/mL (≈ 9.28 µM). The IC50 [9] was 5.79 µg/mL (≈ 12 µM) and the IC50 [10] was 4.19 µg/mL (≈ 8.72 µM).
